Results: BindingDB's records for patent US12187713 (Betta Pharmaceuticals, 2025)

Biological target: Programmed cell death 1 ligand/protein 1 (Homo sapiens, UniProt Q9NZQ7+Q15116)
Assay: PD-1/PD-L1 Binding Assay (Alphascreen)
Procedure: The assays were conducted in a standard black 384-well polystyrene plate with a final volume of 20 μL. Inhibitors were first serially diluted in DMSO and then added to the plate wells before the addition of other reaction components. The final concentration of DMSO in the assay was […]. Add 100 nL/well of compound to the 384 reaction plate (6008280, PerkinElmer) with Echo and centrifuge at 1000 rpm for 1 minute. Add 5 μL/well 4×PD-L1 solutions to the 384 reaction plate, centrifuge at 1000 rpm for 1 minute, and add 5 μL/well 4×PD-1 solutions, centrifuge at 1000 rpm for 1 minute, and incubate at 25° C. for 15 minutes. The concentrations of the compounds were 300, 100, 33.33, 11.11, 3.70, 1.23, 0.41, 0.137, 0.046, 0.015, 0 nM, respectively. Add 10 μL/well 2× Anti-6×His AlphaLISA Acceptor beads and Streptavidin Donor beads solution (PerkinElmer-AL356F) to the above 384 reaction plate, centrifuge at 1000 rpm for 1 minute, and incubate at 25° C. in the dark for 120 minutes. Read the AlphaLISA signal value using the Envision Reader. IC50 determination was performed by fitting the curve of percent control activity versus the log of the inhibitor concentration using the GraphPad Prism 8.0 software.

Programmed cell death 1 ligand/protein 1, sequence (Q9NZQ7 whole entry): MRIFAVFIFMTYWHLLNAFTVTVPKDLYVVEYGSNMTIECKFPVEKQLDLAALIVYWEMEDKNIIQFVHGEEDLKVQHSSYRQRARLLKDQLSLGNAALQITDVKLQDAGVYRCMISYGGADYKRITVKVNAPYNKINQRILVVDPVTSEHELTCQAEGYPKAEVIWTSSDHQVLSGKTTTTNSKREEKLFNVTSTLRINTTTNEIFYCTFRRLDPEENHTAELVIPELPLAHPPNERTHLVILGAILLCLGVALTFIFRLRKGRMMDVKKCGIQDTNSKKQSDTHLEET
Programmed cell death 1 ligand/protein 1, sequence (Q15116 whole entry): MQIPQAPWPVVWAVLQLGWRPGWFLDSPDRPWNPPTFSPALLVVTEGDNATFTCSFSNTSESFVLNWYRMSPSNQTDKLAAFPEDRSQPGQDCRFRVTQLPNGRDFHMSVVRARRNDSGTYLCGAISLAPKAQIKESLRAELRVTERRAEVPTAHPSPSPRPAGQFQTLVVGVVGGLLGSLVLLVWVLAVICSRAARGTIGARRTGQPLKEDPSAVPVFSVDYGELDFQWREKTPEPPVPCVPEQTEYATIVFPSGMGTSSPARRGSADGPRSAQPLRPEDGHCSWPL

SMILES	IC50
Cc1c(C2=NC3C=C(CN4CCC4(C)N)C(OC(F)F)=CC3O2)cccc1-c1cccc(-c2nc3cc(CN4CCC[C@H]4C(=O)O)c(OC(F)F)cc3o2)c1C (some centres not stated) [US12187713, Example 40]	2.5 nM
CCCNCCCN(C)CC1=CC2N=C(c3cccc(-c4cccc(-c5nc6cc(CN7CCC[C@H]7C(=O)O)c(OC(F)F)cc6o5)c4C)c3C)OC2C=C1OC(F)F (some centres not stated) [US12187713, Example 53]	2.5 nM
